pKi: −log10 of the molar value.
Assays:
[1] = target: Transient receptor potential cation channel subfamily V member 1 (Rattus norvegicus) (UniProt O35433); assay: Agonist activity at rat TRPV1 receptor expressed in CHO cells by Ca2+ uptake assay; type: functional, cell-based
[2] = target: T1, Transient receptor potential cation channel subfamily V member 1 (Rattus norvegicus, UniProt O35433); assay: Antagonist activity at rat TRPV1 receptor expressed in CHO cells by Ca2+ uptake assay
[3] = target: T1, Transient receptor potential cation channel subfamily V member 1; assay: Displacement of [3H]RTX from rat TRPV1 receptor expressed in CHO cells; type: cell-based

T1 sequence (O35433 whole entry): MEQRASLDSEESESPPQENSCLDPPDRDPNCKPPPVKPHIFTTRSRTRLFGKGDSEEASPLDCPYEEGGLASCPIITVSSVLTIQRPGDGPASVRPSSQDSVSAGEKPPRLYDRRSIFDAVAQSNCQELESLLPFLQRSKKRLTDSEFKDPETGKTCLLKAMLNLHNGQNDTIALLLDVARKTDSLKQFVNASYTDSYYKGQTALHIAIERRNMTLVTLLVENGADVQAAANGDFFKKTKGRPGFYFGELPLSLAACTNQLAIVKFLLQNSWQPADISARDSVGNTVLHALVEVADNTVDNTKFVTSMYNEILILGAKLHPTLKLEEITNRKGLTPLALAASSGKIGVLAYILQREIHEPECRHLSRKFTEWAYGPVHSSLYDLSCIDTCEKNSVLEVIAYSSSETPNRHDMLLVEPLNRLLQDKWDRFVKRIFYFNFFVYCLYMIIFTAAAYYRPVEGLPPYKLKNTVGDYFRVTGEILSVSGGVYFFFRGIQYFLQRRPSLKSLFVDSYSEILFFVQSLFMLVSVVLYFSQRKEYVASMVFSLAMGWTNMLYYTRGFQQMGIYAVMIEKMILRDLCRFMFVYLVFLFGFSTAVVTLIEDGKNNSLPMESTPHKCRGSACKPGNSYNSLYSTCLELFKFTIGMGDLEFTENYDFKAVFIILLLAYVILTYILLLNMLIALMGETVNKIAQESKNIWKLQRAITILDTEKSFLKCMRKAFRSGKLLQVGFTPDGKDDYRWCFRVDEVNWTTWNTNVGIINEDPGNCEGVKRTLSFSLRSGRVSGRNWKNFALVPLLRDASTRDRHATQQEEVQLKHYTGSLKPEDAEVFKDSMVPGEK
Chain of Transient receptor potential cation channel subfamily V member 1 (Rattus norvegicus) (O35433 whole entry): as above

Row | SMILES | Activity [1] | pKi [2] | pKi [3]
1 | C[C@H](/N=C(\S)NCc1ccc(C(C)(C)C)cc1)c1ccc(NS(C)(=O)=O)cc1 | 8% | – | –
2 | C[C@@H](NC(=S)NCc1ccc(C(C)(C)C)cc1)c1ccc(NS(C)(=O)=O)c(F)c1 | – | 7.43 | –
3 | CN(C)CCCN1c2ccccc2Sc2ccc(Cl)cc21 [CHLORPROMAZINE] | – | 6.28 | 5.89
4 | C[C@H](NC(=S)NCc1ccc(C(C)(C)C)cc1)c1ccc(NS(C)(=O)=O)cc1 | – | – | 5.40
5 | C[C@H](NC(=S)NCc1ccc(C(C)(C)C)cc1)c1ccc(NS(C)(=O)=O)c(F)c1 | – | 5.57 | 5.67
6 | CC(NC(=S)NCc1ccc(C(C)(C)C)cc1)c1ccc(NS(C)(=O)=O)cc1 (configuration not stated) | – | 7.83 | 7.23
7 | CC(C)(C)c1ccc(CNC(=S)NC(C)(C)c2ccc(NS(C)(=O)=O)cc2)cc1 | – | 5.74 | –
8 | COc1cc(CNC(=S)NCc2ccc(C(C)(C)C)cc2)ccc1NS(C)(=O)=O | 18% | – | 7.29

From ChEMBL document CHEMBL1143756, “Alpha-substituted N-(4-tert-butylbenzyl)-N'-[4-(methylsulfonylamino)benzyl]thiourea analogues as potent and stereospecific TRPV1 antagonists” (Bioorg Med Chem, 2007)
